Patent US20150352114A1, “MITOTIC KINESIN Eg5 INHIBITING ANTICANCER AGENTS” (THE CLEVELAND CLINIC FOUNDATION, priority 2014, published 2015)

How the values were obtained:
[1] = tested on: GSCs from xenograft 3691; test: Intracranial implantation of pre-exposed GSCs (tumor initiation); type: in vivo, mice
Description: All animal studies described were approved by the Cleveland Clinic Foundation Institutional Animal Care and Use Committee and conducted in accordance with the NIH Guide for the Care and Use of Laboratory Animals. For subcutaneous tumor studies, 1×10^5 freshly dissociated GBM cells from a xenograft originally derived from a primary GBM patient specimen (3691) were injected into the flanks of 10 six week old female athymic nu/nu mice. Tumors were allowed to reach approximately 0.12 cm^3, at which point animals were randomized into either vehicle control (DMSO) group or ispinesib (10 mg/kg given daily for 7 consecutive days by intraperitoneal injection) (Selleck Chemicals, Houston, Tex.). Tumors were monitored and measured daily using perpendicular diameter measurements for 7 days. Tumor volume was calculated using the ellipsoid formula π/6×larger diameter×(smaller diameter)^2. After the last treatment on Day 7, tumors were removed and weighed then processed for immunofluorescence (as described below). For intracranial implantation studies to evaluate tumor initiation by GSCs, the cells were isolated as described below and pre-exposed to drug or vehicle either in vitro or in vivo. […] Mice were monitored daily for neurological impairment at which time they were sacrificed and brains removed to evaluate for tumor development.

[2] = tested on: NSTCs; test: Dose response cell viability, CellTiter-Glo ATP-based assay, NSTCs; details: Homo sapiens, 0 to 32 nM, 72 hours
Source text: Human tissues were acquired from primary human brain tumor patient specimens in accordance with appropriate approved Institutional Review Board protocols. Tumor grade and available cytogenetic information for each specimen has been previously described. Tumor specimens were maintained through subcutaneous xenografts in the flanks of athymic Nu/Nu or NSG mice. Tumors were dissociated using a papain dissociation system (Worthington Biochemical, Lakewood, N.J.). […]
The half maximal effective concentration of ispinesib for acutely dissociated and MACS sorted matched GSCs and NSTCs was determined by plating, in triplicate, 1,000 cells per well of a 96 well plate pre-coated with GelTrex in growth-factor free Neuralbasal media. […] Viability was measured at 72 hours using CellTiter-Glo ATP-based assay (Promega, Madison, Wis.) read on a luminometer (Perkin-Elmer, Waltham, Mass.). […] The next day, cells were exposed to 3 nM ispinesib or vehicle (DMSO) and viability was measured daily for 5 days using CellTiter-Glo. Day 0 reading were taken immediately after addition of drug or vehicle. SubG1 for GSCs and NSTCs was determined by flow cytometry for propidium iodide and gated as the events below the 2N G1 peak of the resulting histogram. […] Cells were fixed at Day 0 through Day 4 in 100% cold ethanol and simultaneously processed for flow analysis with 20,000 events analyzed per condition.

[3] = tested on: 08-387 GSCs; test: Wound assay, tubulin immunofluorescence; type: cell-based, human; details: 200 nM; 6 hours
Description: Interphase enriched 08-387 GSCs were seeded within two-well culture inserts (ibidi, Verona, Wis.) at 2×10^5 cells per ml in triplicate (final volume of 80 μl per well) onto Geltrex coated glass bottom 6 well pates (MatTek Corp., Ashland, Mass.). After 2 hours, the insert was removed and cells were exposed to vehicle or 200 nM ispinesib. 6 hours later, cells were fixed and processed for immunofluorescence as described for atubulin. 20 Z-stack images at the wound edge were captured per condition using the 40× objective on a Leica DMI6000 inverted microscope. Images were then exported aa tif files using Velocity software (Mountain View, Calif.) and analyzed in ImageJ (NIH, Bethesda, Md.). Regions of interest were drawn for the primary cell layer at the wound edge for 3 independent scans per Z-stack representing the top, middle and bottom portion of the cell layer and pixel intensity and area measured.

Q: How did the tumor initiation ([1]; GSCs from subcutaneous tumors treated in vivo 3 days with 10 mg/kg, 1,000 or 10,000 cells per mouse) turn out when `Cc1ccc(C(=O)N(CCCN)[C@@H](c2nc3cc(Cl)ccc3c(=O)n2Cc2ccccc2)C(C)C)cc1` [ispinesib, N-(3-amino-propyl)-n-[R-1-(3-benzyl-7-choloro-4-oxo-3,4-dihydroquinazolin-2-yl)-2-methyl-propyl]-4-methyl-benzamide methanesulfonate] was run?
A: reduced their tumor initiation phenotype

Q: What about the secondary tumor initiation ([1]; GSCs pretreated in vitro 18 hours with 3 nM, 2,500 or 25,000 cells per mouse) of the same molecule?
A: significant impairment of secondary tumor initiation

Q: What about the EC50 [2] of the same molecule?
A: 1.79 ± 0.22 nM

Q: And the “polymerized tubulin at wound edge” value [3]?
A: significant decrease in polymerized tubulin
